From ChEMBL document CHEMBL3286190, “Discovery of antitubulin agents with antiangiogenic activity as single entities with multitarget chemotherapy potential” (ACS Med Chem Lett, 2014)
Blank lines part the entries; values can stand above or below the molecule they belong to. The source made the active and inactive calls. No cut-off for these calls is given here.

Experiments:
HeLa [1] = assay: Growth inhibition of wild type human HeLa cells after 96 hrs incubation by sulforhodamine B technique; format: functional, cell-based
HeLa [2] = assay: Growth inhibition of human HeLa cells overexpressing beta-3 after 96 hrs incubation by sulforhodamine B technique; format: functional, cell-based
[3] = Growth inhibition of human OVCAR8 cells after 96 hrs incubation by sulforhodamine B technique; format: functional, cell-based; settings: OVCAR-8, 96 h
NCI/ADR-RES = assay: Growth inhibition of human NCI/ADR-RES cells overexpressing P-gp after 96 hrs incubation by sulforhodamine B technique; format: functional, cell-based
Tubulin = Tubulin (Bos taurus, UniProt Q6B856+Q862L2+Q862F3); assay: Inhibition of bovine brain tubulin assembly preincubated for 15 mins followed by GTP addition measured for 20 mins by spectrophotometry
MDA-MB-435 [4] = settings: Homo sapiens, 25 mg/kg
Description: Antitumor activity against human MDA-MB-435 cells xenografted into flank of athymic BALBc/J mouse assessed as decrease in tumor growth at 25 mg/kg twice weekly measured up to 34 days

Mus musculus [5] = assay: Toxicity in BALBc/J mouse allografted with mouse 4T1 cells at 25 mg/kg twice weekly measured up to 32 days; format: organism-based; design: dose 25 mg/kg; settings: in vivo, 768 h
Mus musculus [6] = assay: Toxicity in athymic BALBc/J mouse xenografted with human MDA-MB-435 cells assessed as body weight at 25 mg/kg twice weekly; format: organism-based; design: dose 25 mg/kg; settings: in vivo
MDA-MB-435 [7] = assay: Induction of apoptosis in human MDA-MB-435 cells assessed as caspase 3 cleavage at IC50 concentration after 48 hrs by Western blotting analysis; format: functional, cell-based
4T1 [8] = settings: Mus musculus, 25 mg/kg
Description: Antitumor activity against ip dosed mouse 4T1 cells expressing luciferase allografted in BALBc/J mouse assessed as reduction in lung metastases at 25 mg/kg twice weekly measured after 32 days

U-251 [9] = settings: Homo sapiens, 25 mg/kg
Description: Antitumor activity against human U251 cells xenografted into athymic NCr mouse assessed as decrease in tumor growth at 25 mg/kg twice weekly measured up to 34 days

Chorioallantoic membrane = assay: tissue or blood; settings: Gallus gallus
Description: Antiangiogenic activity in chicken chorioallantoic membrane assessed as inhibition of VEGF/bFGF-induced angiogenesis treated 8 hrs after VEGF/bFGF addition measured after 40 hrs by microscopy

4T1 [10] = settings: Mus musculus, 25 mg/kg; remark: listed apart in the source
Description: Antitumor activity against mouse 4T1 cells expressing luciferase allografted in BALBc/J mouse assessed as suppression of tumor growth at 25 mg/kg twice weekly measured up to 30 days

NCI60 = assay: Growth inhibition of human NCI60 cells after 96 hrs incubation by sulforhodamine B technique; format: functional, cell-based
Homo sapiens = species: Homo sapiens; assay: Disruption of microtubule organization in human MDA-MB-435 cells at IC50 concentration after 2 hrs by immunofluorescence assay; format: cell-based
MDA-MB-435 [11] = settings: Homo sapiens, 25 mg/kg; remark: listed apart in the source
Description: Antitumor activity against human MDA-MB-435 cells xenografted into flank of athymic BALBc/J mouse assessed as decrease in tumor vascular density at 25 mg/kg twice weekly by CD31/PECAM-1 immunohistochemical staining

Mus musculus [12] = assay: Toxicity in athymic NCr mouse xenografted with human U251 cells at 25 mg/kg twice weekly measured up to 34 days; format: organism-based, U-251; design: dose 25 mg/kg; settings: in vivo, 816 h
MDA-MB-435 [13] = assay: Induction of apoptosis in human MDA-MB-435 cells assessed as PARP cleavage at IC50 concentration after 48 hrs by Western blotting analysis; format: functional, cell-based
MDA-MB-435 [14] = assay: Cell cycle arrest in human MDA-MB-435 cells assessed as increase in accumulation at G2/M phase at IC50 concentration after 2 hrs by propidium iodide staining-based flow cytometry; format: functional
Tubulin (Homo sapiens) = Tubulin (Homo sapiens) (UniProt P68371+Q9H4B7+P0DPH7+P68366+Q13509+Q71U36+P04350+Q3ZCM7+P07437+P68363+Q9BQE3+Q6PEY2+Q13885+Q9BVA1+Q9BUF5); assay: Displacement of [3H]-colchicine from tubulin (unknown origin) at 50 uM relative to control; format: protein-complex assay
Mus musculus [15] = assay: Toxicity in BALBc/J mouse allografted with mouse 4T1 cells at 35 mg/kg twice weekly measured up to 32 days; format: organism-based; design: dose 35 mg/kg; settings: in vivo, 768 h
MDA-MB-435 [16] = assay: Antitumor activity against human MDA-MB-435 cells xenografted into flank of […] assessed as decrease in tumor growth at 35 mg/kg twice weekly measured up to 34 days; format: functional, organism-based; design: dose 35 mg/kg
U-251 [17] = assay: Antitumor activity against human U251 cells xenografted into athymic NCr mouse assessed as decrease in tumor growth at 35 mg/kg twice weekly measured up to 34 days; format: functional, organism-based; design: dose 35 mg/kg
Mus musculus [18] = assay: Toxicity in athymic BALBc/J mouse xenografted with human MDA-MB-435 cells assessed as body weight at 35 mg/kg twice weekly; format: organism-based; design: dose 35 mg/kg; settings: in vivo
Mus musculus [19] = assay: Toxicity in athymic NCr mouse xenografted with human cells at 35 mg/kg twice weekly measured up to 34 days; settings: in vivo, 816 h
4T1 [20] = assay: Antitumor activity against mouse 4T1 cells expressing luciferase allografted in BALBc/J mouse assessed as suppression of tumor growth at 35 mg/kg twice weekly measured up to 30 days; format: functional, organism-based; design: dose 35 mg/kg
4T1 [21] = assay: Antitumor activity against ip dosed mouse 4T1 cells expressing luciferase allografted in BALBc/J mouse assessed as reduction in lung metastases at 35 mg/kg twice weekly measured after 32 days; format: functional, organism-based; design: dose 35 mg/kg
MDA-MB-435 [22] = assay: Antitumor activity against human MDA-MB-435 cells xenografted into flank of athymic BALBc/J mouse assessed as decrease in tumor vascular density at 35 mg/kg twice weekly by CD31/PECAM-1 immunohistochemical staining; format: functional, organism-based; design: dose 35 mg/kg
Mus musculus [23] = assay: Toxicity in athymic NCr mouse at 30 mg/kg twice weekly measured up to 34 days; settings: in vivo, 816 h
Mus musculus [24] = assay: Toxicity in athymic BALBc/J mouse xenografted with human MDA-MB-435 cells assessed as body weight at 30 mg/kg twice weekly; format: organism-based; design: dose 30 mg/kg; settings: in vivo
U-251 [25] = assay: Antitumor activity against human U251 cells xenografted into athymic NCr mouse assessed as decrease in tumor growth at 30 mg/kg twice weekly measured up to 34 days; format: functional, organism-based; design: dose 30 mg/kg
MDA-MB-435 [26] = assay: Antitumor activity against human MDA-MB-435 cells xenografted into flank of […] assessed as decrease in tumor growth at 30 mg/kg twice weekly measured up to 34 days; format: functional, organism-based; design: dose 30 mg/kg
MDA-MB-435 [27] = assay: Antitumor activity against human MDA-MB-435 cells xenografted into flank of athymic BALBc/J mouse assessed as decrease in tumor vascular density at 30 mg/kg twice weekly by CD31/PECAM-1 immunohistochemical staining; format: functional, organism-based; design: dose 30 mg/kg

SMILES: COc1ccc(/C=C\c2cc(OC)c(OC)c(OC)c2)cc1O [COMBRETASTATIN A4]
IC50 (HeLa [1]): 1.8 nM
IC50 (HeLa [2]): 2.5 nM

IC50 (HeLa [1]): 5.3 nM
IC50 (HeLa [2]): 16 nM
SMILES: CC(=O)O[C@H]1C(=O)[C@@]2(C)[C@H]([C@H](OC(=O)c3ccccc3)[C@]3(O)C[C@H](OC(=O)[C@H](O)[C@@H](NC(=O)c4ccccc4)c4ccccc4)C(C)=C1C3(C)C)[C@]1(OC(C)=O)CO[C@@H]1C[C@@H]2O [PACLITAXEL]
IC50 [3]: 10 nM
IC50 (NCI/ADR-RES): 5000 nM

IC50 (Tubulin): > 40000 nM
SMILES: COc1ccc(Nc2nc(C)nc3c(Cc4ccccc4)c[nH]c23)c(OC)c1.Cl
IC50 [3]: > 5000 nM
IC50 (NCI/ADR-RES): > 5000 nM

IC50 (HeLa [1]): > 10000 nM
IC50 (HeLa [2]): > 10000 nM
IC50 (Tubulin): > 20000 nM
SMILES: COc1ccc(Nc2nc(C)nc3c(Cc4ccccc4)c[nH]c23)cc1.Cl

IC50 (HeLa [1]): 280 nM
IC50 (HeLa [2]): 280 nM
inhibition (Tubulin (Homo sapiens)): 55%
IC50 (Tubulin): 21000 nM
SMILES: COc1ccc(N(C)c2nc(C)nc3c(Cc4ccccc4)c[nH]c23)cc1.Cl
inhibition (MDA-MB-435 [4]): Active
Activity (Mus musculus [5]): Non-toxic
Activity (Mus musculus [6]): Non-toxic
Activity (MDA-MB-435 [7]): Active
inhibition (4T1 [8]): Active
IC50 [3]: 1000 nM
inhibition (U-251 [9]): Active
IC50 (Chorioallantoic membrane): 2900 nM
inhibition (4T1 [10]): Active
growth inhibition (GI) (NCI60): Active
Activity (Homo sapiens): Active
inhibition (MDA-MB-435 [11]): Active
IC50 (NCI/ADR-RES): 700 nM
Activity (Mus musculus [12]): Non-toxic
Activity (MDA-MB-435 [13]): Active
Activity (MDA-MB-435 [14]): Active

SMILES: CC(=O)O[C@@]12CO[C@@H]1C[C@H](O)[C@@]1(C)C(=O)[C@H](O)C3=C(C)[C@@H](OC(=O)[C@H](O)[C@@H](NC(=O)OC(C)(C)C)c4ccccc4)C[C@@](O)([C@@H](OC(=O)c4ccccc4)[C@H]21)C3(C)C.O.O.O [DOCETAXEL]
Activity (Mus musculus [15]): Non-toxic
inhibition (MDA-MB-435 [16]): Active
inhibition (U-251 [17]): Active
Activity (Mus musculus [18]): Non-toxic
Activity (Mus musculus [19]): Non-toxic
inhibition (4T1 [20]): Active
inhibition (4T1 [21]): Active
inhibition (MDA-MB-435 [22]): Active

SMILES: CCN(CC)CCNC(=O)c1c(C)[nH]c(/C=C2\C(=O)Nc3ccc(F)cc32)c1C [SUNITINIB]
Activity (Mus musculus [23]): Non-toxic
Activity (Mus musculus [24]): Non-toxic
inhibition (U-251 [25]): Active
inhibition (MDA-MB-435 [26]): Active
inhibition (MDA-MB-435 [27]): Active

IC50 (Tubulin): 10000 nM
SMILES: COc1ccc(N(C)c2nc(C)nc3cc[nH]c23)cc1.Cl

IC50 (HeLa [1]): > 10000 nM
IC50 (HeLa [2]): > 10000 nM
IC50 (Tubulin): > 20000 nM
SMILES: Cc1nc(N(C)c2ccccc2)c2[nH]cc(Cc3ccccc3)c2n1.Cl
